# Test results from ChEMBL document CHEMBL4418308, “cGAS ANTAGONIST COMPOUNDS” (2017).
# Target: T1, Cyclic GMP-AMP synthase (Homo sapiens, UniProt Q8N884)
# Test: Inhibition of CGAS in human THP1 cells transfected with interferon stimulatory DNA and measured after 16 hrs by Gaussia luciferase reporter gene assay
# Format: cell-based
# T1 sequence (Q8N884 whole entry): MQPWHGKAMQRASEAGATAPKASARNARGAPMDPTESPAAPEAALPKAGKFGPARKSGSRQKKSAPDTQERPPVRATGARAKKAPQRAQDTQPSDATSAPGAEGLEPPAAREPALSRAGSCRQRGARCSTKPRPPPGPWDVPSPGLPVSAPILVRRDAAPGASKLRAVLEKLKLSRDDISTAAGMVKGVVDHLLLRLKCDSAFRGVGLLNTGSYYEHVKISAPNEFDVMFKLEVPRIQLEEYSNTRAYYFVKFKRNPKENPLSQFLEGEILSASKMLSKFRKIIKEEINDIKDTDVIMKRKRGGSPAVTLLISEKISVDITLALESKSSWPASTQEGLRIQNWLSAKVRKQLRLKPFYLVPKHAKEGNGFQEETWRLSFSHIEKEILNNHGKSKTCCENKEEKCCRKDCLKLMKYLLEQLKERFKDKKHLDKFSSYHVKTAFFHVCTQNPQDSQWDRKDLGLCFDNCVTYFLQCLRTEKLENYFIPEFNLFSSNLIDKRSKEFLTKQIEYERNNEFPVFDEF
row,IC50,Compound
1,≤ 2.5 µM,Nc1ncc(COc2cc(/C=c3\sc4nccn4c3=O)c(Br)cc2O)cn1
2,2.5 to 10 µM,CC(Oc1cc(/C=C2\Sc3ncccc3C2=O)c(Br)c(F)c1O)c1cnc(N)nc1 (stereo not given)

# The remaining lines, values behind:
row,Compound,IC50
1,CN1C(=O)S/C(=C\c2cc(OCc3cnc(Cl)nc3N)c(O)c(F)c2Br)C1=O,2.5 to 10 µM
2,CN1C(=O)S/C(=C\c2cc(OCC(=O)c3cnc(N)nc3)c(O)c(F)c2Br)C1=O,2.5 to 10 µM
3,CC(Oc1cc(/C=C2\Sc3ncc(F)cc3C2=O)c(Br)c(F)c1O)c1cnc(N)nc1 (stereo not given),2.5 to 10 µM
4,CC(Oc1cc(/C=C2\SC(=O)N(C)C2=O)c(Br)c(F)c1O)c1cnc(N)nc1 (stereo not given),≤ 2.5 µM

# Target: T1, Cyclic GMP-AMP synthase
# Test: Inhibition of recombinant His6-SUMO tagged human CGAS expressed in Escherichia coli BL21/pLys cells incubated for 20 mins by Kinase Glo chemiluminescence assay
row,IC50,Compound
1,0.5 to 10 µM,Nc1ncc(COc2cc(/C=c3\sc4nccn4c3=O)c(Br)cc2O)cn1
2,≤ 0.5 µM,CC(Oc1cc(/C=C2\Sc3ncccc3C2=O)c(Br)c(F)c1O)c1cnc(N)nc1 (stereo not given)
3,≤ 0.5 µM,CCc1cc(/C=C2\Sc3ncccc3C2=O)c(Br)cc1O
4,≥ 10 µM,CN1C(=O)S/C(=C\c2cc(OCc3ccccn3)c(O)cc2Br)C1=O
5,≥ 10 µM,CN1C(=O)S/C(=C\c2cc(OCc3ccc4ncccc4c3)c(O)cc2Br)C1=O
6,≥ 10 µM,CN1C(=O)S/C(=C\c2cc(OCc3cnc(N4CCCCC4)nc3)c(O)cc2Br)C1=O
7,≥ 10 µM,CSc1ncc(COc2cc(/C=C3\SC(=O)N(C)C3=O)c(Br)cc2O)cn1
8,≤ 0.5 µM,COc1cc(/C=C2\Sc3ncccc3C2=O)c(Br)c(Cl)c1O
9,≥ 10 µM,COc1cc(/C=C2\Sc3ncccc3C2=O)c(Br)cc1Oc1cnc(N)s1
10,≤ 0.5 µM,O=C1/C(=C/c2ccc(O)cc2Br)Sc2ncccc21
11,0.5 to 10 µM,COc1cc(/C=C2\Sc3ncccc3C2=O)c(C)cc1O
12,≥ 10 µM,CN1C(=O)S/C(=C\c2cc(OCc3cncc(NCc4ccncc4)c3)c(O)cc2Br)C1=O
13,≥ 10 µM,CN1C(=O)S/C(=C\c2cc(OCc3ccn(-c4ccccc4)c(=O)c3)c(O)cc2Br)C1=O
14,≥ 10 µM,CN1C(=O)S/C(=C\c2cc(OCc3cnc(Nc4ccccc4)nc3)c(O)cc2Br)C1=O
15,≤ 0.5 µM,O=C1/C(=C/c2cc(OCc3cnc(NCc4ccccn4)nc3)c(O)cc2Br)Sc2ncccc21
16,≤ 0.5 µM,Nc1ncc(/C=C/c2cc(/C=C3\Sc4ncccc4C3=O)c(Br)cc2O)cn1
17,≥ 10 µM,CN1C(=O)S/C(=C\c2cc(OCc3cncc(NCc4ccccn4)c3)c(O)cc2Br)C1=O
18,≤ 0.5 µM,CN1C(=O)S/C(=C\c2cc(OCc3cnc(NC(=O)c4ccncc4)nc3)c(O)cc2Br)C1=O

row,IC50,Compound
1,≤ 0.5 µM,COc1cc(/C=C2\Sc3ncc(F)cc3C2=O)c(Br)cc1O
2,≤ 0.5 µM,Nc1ncc(COc2cc(/C=C3\Sc4ncccc4C3=O)c(Br)cc2O)c(C(F)(F)F)n1
3,≥ 10 µM,CN1C(=O)S/C(=C\c2cc(OCc3cnc(N4CCCC4)nc3)c(O)cc2Br)C1=O
4,≤ 0.5 µM,O=C1/C(=C/c2cc(OCc3cnc(NCc4cccnc4)nc3)c(O)cc2Br)Sc2ncccc21
5,≤ 0.5 µM,CN1C(=O)S/C(=C\c2cc(OCc3cnc(NCc4ccncc4)nc3)c(O)c(F)c2Br)C1=O
6,≥ 10 µM,CN1C(=O)S/C(=C\c2cc(OCc3ccccc3)c(O)cc2Br)C1=O
7,≤ 0.5 µM,CC(Oc1cc(/C=C2\Sc3ncccc3C2=O)c(Br)cc1O)c1cnc(Cl)nc1 (stereo not given)
8,≥ 10 µM,CN1C(=O)S/C(=C\c2cc(OCc3cnc(O)nc3)c(O)cc2Br)C1=O
9,≥ 10 µM,CN1C(=O)S/C(=C\c2cc(OCc3cnc(S)nc3)c(O)cc2Br)C1=O
10,≥ 10 µM,CC(C)c1cc(/C=C2\Sc3ncccc3C2=O)c(Br)cc1O
11,≤ 0.5 µM,CN1C(=O)S/C(=C\c2cc(OCc3cnc(Nc4ccncc4)nc3)c(O)cc2Br)C1=O
12,≤ 0.5 µM,COc1cc(/C=C2\Sc3cnccc3C2=O)c(Br)cc1O
13,≤ 0.5 µM,CN1C(=O)S/C(=C\c2cc(OCc3ccc(NC(=O)c4ccncc4)nc3)c(O)cc2Br)C1=O
14,≥ 10 µM,CN1C(=O)S/C(=C\c2cc(Oc3cccc4ncccc34)c(O)cc2Br)C1=O
15,≥ 10 µM,CN1C(=O)S/C(=C\c2cc(OCc3cnc(C4CC4)nc3)c(O)cc2Br)C1=O
16,0.5 to 10 µM,CC(Oc1cc(/C=C2\Sc3ncccc3C2=O)c(Br)cc1O)c1cccnc1 (stereo not given)
17,≥ 10 µM,CN1C(=O)S/C(=C\c2cc(OCc3cncc(NC(=O)c4ccncc4)c3)c(O)cc2Br)C1=O
18,≥ 10 µM,CN1C(=O)S/C(=C\c2cc(Oc3ccc(-c4ccccn4)cc3)c(O)cc2Br)C1=O

# Further lines, the compound ahead of its results:
row,Compound,IC50
1,CN1C(=O)S/C(=C\c2cc(OCc3cnc(Cl)nc3N)c(O)c(F)c2Br)C1=O,≤ 0.5 µM
2,CN1C(=O)S/C(=C\c2cc(OCC(=O)c3cnc(N)nc3)c(O)c(F)c2Br)C1=O,0.5 to 10 µM
3,CC(Oc1cc(/C=C2\Sc3ncc(F)cc3C2=O)c(Br)c(F)c1O)c1cnc(N)nc1 (stereo not given),≤ 0.5 µM
4,CC(Oc1cc(/C=C2\SC(=O)N(C)C2=O)c(Br)c(F)c1O)c1cnc(N)nc1 (stereo not given),≤ 0.5 µM
5,CN1C(=O)S/C(=C\c2ccc(O)cc2Br)C1=O,≥ 10 µM
6,CC(Oc1cc(/C=C2\SC(=O)N(C)C2=O)c(Br)cc1O)c1cnc(NCCO)nc1 (stereo not given),0.5 to 10 µM
7,COc1cc(/C=C2\SC(=O)N(C)C2=O)c(F)cc1O,≥ 10 µM
8,CCC(Oc1cc(/C=C2\SC(=O)N(C)C2=O)c(Br)c(F)c1O)c1cnc(Cl)nc1 (stereo not given),0.5 to 10 µM
9,O=C1NC(=O)/C(=C/c2cccnc2)S1,≥ 10 µM
10,CN1C(=O)S/C(=C\c2cc3cc[nH]c3cc2Br)C1=O,0.5 to 10 µM
11,[2H]C(C)(Oc1cc(/C=C2\SC(=O)N(C)C2=O)c(Br)c(F)c1O)c1cnc(N)nc1 (stereo not given),≤ 0.5 µM
12,COc1cc(/C=C2\SC(=O)N(C)C2=O)c(Br)cc1Oc1cnc(NCc2ccncc2)s1,≥ 10 µM
13,CN1C(=O)S/C(=C\c2cc(OCc3cncnc3O)c(O)cc2Br)C1=O,≤ 0.5 µM
14,CN1C(=O)S/C(=C\c2cc(O)c(O)cc2F)C1=O,≥ 10 µM
15,CC(C)COc1cc(/C=C2\SC(=O)N(C)C2=O)c(Br)cc1O,≥ 10 µM
16,Cc1cnccc1/C=C1\SC(=O)NC1=O,≤ 0.5 µM
17,COc1cc(/C=C2\SC(=O)N(C)C2=O)c(C(F)(F)F)cc1O,≥ 10 µM
18,CN1C(=O)S/C(=C\c2cc3oc(=O)[nH]c3cc2Br)C1=O,≥ 10 µM
19,Cc1ncc(COc2cc(/C=C3\SC(=O)N(C)C3=O)c(Br)c(F)c2O)cn1,0.5 to 10 µM
20,O=C1NC(=O)/C(=C/c2cnccn2)S1,≥ 10 µM
21,COc1cc(/C=C2\SC(=O)N(C)C2=O)c(Br)cc1NS(=O)(=O)c1ccc(C)cc1,≥ 10 µM
22,O=C1NC(=O)/C(=C/c2ccncc2C(F)(F)F)S1,≥ 10 µM
23,CN1C(=O)S/C(=C\c2cc(Oc3cccc4c3COCC4)c(O)cc2Br)C1=O,≥ 10 µM

row,Compound,IC50
1,COc1cc(/C=C2\SC(=O)N(C)C2=O)c(Br)c(Cl)c1O,≥ 10 µM
2,COc1cc(/C=C2\SC(=O)N(C)C2=S)c(Br)cc1O,≤ 0.5 µM
3,CC(Oc1cc(/C=C2\SC(=O)N(C)C2=O)c(Br)c(F)c1O)c1cncnc1 (stereo not given),≥ 10 µM
4,CSc1ccc(CCc2cc(/C=C3\SC(=O)N(C)C3=O)c(Br)cc2O)cc1,0.5 to 10 µM
5,CN1C(=O)S/C(=C\c2cc(OCc3cc[nH]c(=O)c3)c(O)cc2Br)C1=O,0.5 to 10 µM
6,Cc1ncc(C(C)Oc2cc(/C=C3\SC(=O)N(C)C3=O)c(Br)cc2O)cn1 (stereo not given),≥ 10 µM
7,CN1C(=O)S/C(=C\c2cc3cc[nH]c3c(F)c2Br)C1=O,0.5 to 10 µM
8,CN1C(=O)S/C(=C\c2cc3nn[nH]c3cc2Br)C1=O,≥ 10 µM
9,COc1cc(/C=c2\sc3n(c2=O)CCN=3)c(Cl)cc1O,≥ 10 µM
10,COc1cc(/C=C2\SC(=O)N(C)C2=O)c(C#N)cc1O,≥ 10 µM
11,C/N=C1/S/C(=C\c2cc(OC)c(O)cc2Br)C(=O)N1C,≥ 10 µM
12,O=C1NC(=O)/C(=C/c2cncnc2)S1,≥ 10 µM
13,Cc1nc(N)ncc1C(C)Oc1cc(/C=C2\SC(=O)N(C)C2=O)c(Br)cc1O (stereo not given),≥ 10 µM
14,Cc1nc([S+](C)[O-])nc(C)c1COc1cc(/C=C2\SC(=O)N(C)C2=O)c(Br)cc1O (stereo not given),≥ 10 µM
15,O=C1NC(=O)/C(=C/c2ccncc2)S1,≤ 0.5 µM
16,COc1ncc(COc2cc(/C=C3\SC(=O)N(C)C3=O)c(Br)cc2O)cn1,0.5 to 10 µM
17,CC(Oc1cc(CC2Sc3ncccc3C2=O)c(Br)c(F)c1O)c1cnc(Cl)nc1 (stereo not given),≥ 10 µM
18,CC/N=C1/S/C(=C\c2cc(OC)c(O)cc2Br)C(=O)N1C,≥ 10 µM
19,CN1C(=O)S/C(=C\c2cc(OCC3CCN(C(=O)c4cccnc4)CC3)c(O)cc2Br)C1=O,0.5 to 10 µM
20,CN1C(=O)S/C(=C\c2cc(OCc3cnc(C4CCNCC4)nc3)c(O)cc2Br)C1=O,0.5 to 10 µM
21,O=C1NC(=O)/C(=C/c2ccncc2)N1,0.5 to 10 µM
22,CN1C(=O)S/C(=C\c2cc(OCc3cnc([S+](C)[O-])nc3Cl)c(O)cc2Br)C1=O (stereo not given),≥ 10 µM
23,CC(Oc1cc(/C=C2\SC(=O)N(C)C2=O)c(Br)cc1O)c1cnc(Cl)nc1 (stereo not given),≥ 10 µM

row,Compound,IC50
1,CN1C(=O)S/C(=C\c2cc(OCc3cnc(-c4ccccn4)nc3)c(O)cc2Br)C1=O,0.5 to 10 µM
2,CSc1cc(/C=C2\SC(=O)N(C)C2=O)c(Br)cc1O,0.5 to 10 µM
3,CN1C(=O)S/C(=C\c2cc(OCCc3ccncc3)c(O)cc2Br)C1=O,0.5 to 10 µM
4,CN1C(=O)S/C(=C\c2cc(OCc3cnc(N)nc3C3CC3)c(O)c(F)c2Br)C1=O,0.5 to 10 µM
5,C/C(=C1/SC(=O)NC1=O)c1ccncc1,≤ 0.5 µM
6,CNc1ncc(C(C)Oc2cc(/C=C3\SC(=O)N(C)C3=O)c(Br)cc2O)cn1 (stereo not given),≥ 10 µM
7,CC(=O)c1cc(/C=C2\SC(=O)N(C)C2=O)c(Br)cc1O,≥ 10 µM
8,CN1C(=O)S/C(=C\c2cc(OCc3cnc(N)nc3C(F)(F)F)c(O)cc2Br)C1=O,≤ 0.5 µM
9,CN1C(=O)S/C(=C\c2cc(C(C)(F)F)c(O)cc2Br)C1=O,≥ 10 µM
10,CC(=O)c1cc(N)ccc1Oc1cc(/C=C2\SC(=O)N(C)C2=O)c(Br)c(F)c1O,≥ 10 µM
11,COc1cc(/C=C2\SC(=O)N(C)C2=O)c(Br)cc1NS(C)(=O)=O,≥ 10 µM
12,O=C1NC(=O)/C(=C/c2ccnnc2)N1,≥ 10 µM
13,CN1C(=O)S/C(=C\c2cc(OCC3CCN(C(=O)c4ccccc4)CC3)c(O)cc2Br)C1=O,≥ 10 µM
14,O=C1NC(=O)/C(=C/c2c[nH]cn2)S1,≥ 10 µM
15,COc1cc(/C=c2\sc3n(c2=O)CCN=3)c(Br)cc1O,≥ 10 µM
16,CSc1ncncc1C(=O)C(C)Oc1cc(/C=C2\SC(=O)N(C)C2=O)c(Br)c(F)c1O (stereo not given),≥ 10 µM
17,COCCNc1ncc(C(C)Oc2cc(/C=C3\SC(=O)N(C)C3=O)c(Br)cc2O)cn1 (stereo not given),0.5 to 10 µM
18,O=C1NC(=O)/C(=C2\CCCc3cnccc32)S1,≤ 0.5 µM
19,CN1C(=O)S/C(=C\c2cc(Oc3ccnc(N)c3)c(O)cc2Br)C1=O,≥ 10 µM
20,CN1C(=O)S/C(=C\c2cc(OCc3cnc(-n4cccn4)nc3)c(O)cc2Br)C1=O,0.5 to 10 µM
21,CN1C(=O)S/C(=C\c2cc(OCc3ccc(=O)[nH]c3)c(O)cc2Br)C1=O,0.5 to 10 µM
22,N=C1NC(=O)/C(=C/c2ccncc2)S1,≥ 10 µM
